# Tested on: 186277-243-T-J2-PDC spheroids with HUVEC/MSC, viability
# Assay: Anticancer human tumor 186277-243-T-J2-PDC patient-derived colon adenocarcinoma cell line growth inhibition [CLK]
# Conditions: for IC50: curve of first compound; for viability, T/C: stronger effect = lower value
# Summary of the method: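 Multi-cell-type spheroids combined patient-derived tumor cells with HUVEC endothelial cells and human mesenchymal stem cells. Paired agents were dosed in half-log steps down from about clinical Cmax, or from 10 microM where Cmax was unknown.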
# [1] = second compound 0.0316 µM, first compound 0.0316 µM
# [2] = second compound 0.0316 µM, first compound 0.1 µM
# [3] = second compound 0.0316 µM, first compound 0.316 µM
# [4] = second compound 0.0316 µM, first compound 1 µM
# [5] = second compound 0.0316 µM, first compound 3.16 µM
# [6] = second compound 0.0316 µM, first compound 10 µM
# [7] = second compound 0.1 µM, first compound 0.0316 µM
# [8] = second compound 0.1 µM, first compound 0.1 µM
# [9] = second compound 0.1 µM, first compound 0.316 µM
# [10] = second compound 0.1 µM, first compound 1 µM
# [11] = second compound 0.1 µM, first compound 3.16 µM
# [12] = second compound 0.1 µM, first compound 10 µM
# [13] = second compound 0.316 µM, first compound 0.0316 µM
# [14] = second compound 0.316 µM, first compound 0.1 µM
# [15] = second compound 0.316 µM, first compound 0.316 µM
# [16] = second compound 0.316 µM, first compound 1 µM
# [17] = second compound 0.316 µM, first compound 3.16 µM
# [18] = second compound 0.316 µM, first compound 10 µM
# [19] = second compound 1 µM, first compound 0.0316 µM
# [20] = second compound 1 µM, first compound 0.1 µM
# [21] = second compound 1 µM, first compound 0.316 µM
# [22] = second compound 1 µM, first compound 1 µM
# [23] = second compound 1 µM, first compound 3.16 µM
# [24] = second compound 1 µM, first compound 10 µM
# [25] = second compound 3.16 µM, first compound 0.0316 µM
# [26] = second compound 3.16 µM, first compound 0.1 µM
# [27] = second compound 3.16 µM, first compound 0.316 µM
# [28] = second compound 3.16 µM, first compound 1 µM
# [29] = second compound 3.16 µM, first compound 3.16 µM
# [30] = second compound 3.16 µM, first compound 10 µM
# [31] = second compound 10 µM, first compound 0.0316 µM
# [32] = second compound 10 µM, first compound 0.1 µM
# [33] = second compound 10 µM, first compound 0.316 µM
# [34] = second compound 10 µM, first compound 1 µM
# [35] = second compound 10 µM, first compound 3.16 µM
# [36] = second compound 10 µM, first compound 10 µM
# 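Also: compound exposure lasted seven days before readout.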
# 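For viability, T/C in this document: 100% = DMSO vehicle control wells.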
smiles,measurement,setting,value
C#Cc1c(F)ccc2cc(O)cc(-c3ncc4c(N5CC6CCC(C5)N6)nc(OCC56CCCN5CC(F)C6)nc4c3F)c12 (stereo not given) + CNC(=O)c1ccc(Nc2nc(OC3CCCC3)c3c(-c4ccc5nc(C)oc5c4)c[nH]c3n2)c(OC)c1,IC50,second compound 0.0316 µM,0.244 µM
same,IC50,second compound 0.1 µM,< 0.0316 µM
same,IC50,second compound 0.316 µM,< 0.0316 µM
same,IC50,second compound 1 µM,< 0.0316 µM
same,IC50,second compound 3.16 µM,< 0.0316 µM
same,IC50,second compound 10 µM,< 0.0316 µM
same,"viability, T/C",[1],85.1%
same,"viability, T/C",[2],74.1%
same,"viability, T/C",[3],42.3%
same,"viability, T/C",[4],20.4%
same,"viability, T/C",[5],15.4%
same,"viability, T/C",[6],9.35%
same,"viability, T/C",[7],32.4%
same,"viability, T/C",[8],20.2%
same,"viability, T/C",[9],12.4%
same,"viability, T/C",[10],10.1%
same,"viability, T/C",[11],9.23%
same,"viability, T/C",[12],7.22%
same,"viability, T/C",[13],16.6%
same,"viability, T/C",[14],10.6%
same,"viability, T/C",[15],9.98%
same,"viability, T/C",[16],7.75%
same,"viability, T/C",[17],6.06%
same,"viability, T/C",[18],5.84%
same,"viability, T/C",[19],13.1%
same,"viability, T/C",[20],9.92%
same,"viability, T/C",[21],6.68%
same,"viability, T/C",[22],8.68%
same,"viability, T/C",[23],7.28%
same,"viability, T/C",[24],3.31%
same,"viability, T/C",[25],12%
same,"viability, T/C",[26],11.4%
same,"viability, T/C",[27],6.47%
same,"viability, T/C",[28],5.65%
same,"viability, T/C",[29],6.73%
same,"viability, T/C",[30],4.61%
same,"viability, T/C",[31],15.6%
same,"viability, T/C",[32],9.24%
same,"viability, T/C",[33],6.48%
same,"viability, T/C",[34],5.74%
same,"viability, T/C",[35],6.36%
same,"viability, T/C",[36],3.45%
C=C(F)C(=O)N1CCN(c2nc(OCC3CCCN3C)nc3c2CCN(c2cccc4cccc(Cl)c24)C3)CC1CC#N (stereo not given) + CNC(=O)c1ccc(Nc2nc(OC3CCCC3)c3c(-c4ccc5nc(C)oc5c4)c[nH]c3n2)c(OC)c1,IC50,second compound 0.0316 µM,5.73 µM
same,IC50,second compound 0.1 µM,4.22 µM
same,IC50,second compound 0.316 µM,< 0.0316 µM
same,IC50,second compound 1 µM,< 0.0316 µM
same,IC50,second compound 3.16 µM,< 0.0316 µM
same,IC50,second compound 10 µM,< 0.0316 µM
same,"viability, T/C",[1],98%
same,"viability, T/C",[2],96.1%
same,"viability, T/C",[3],99.2%
same,"viability, T/C",[4],93.8%
same,"viability, T/C",[5],114%
same,"viability, T/C",[6],3.01%
same,"viability, T/C",[7],68.4%
same,"viability, T/C",[8],70.6%
same,"viability, T/C",[9],69.8%
same,"viability, T/C",[10],61.2%
same,"viability, T/C",[11],65.9%
same,"viability, T/C",[12],2.67%
same,"viability, T/C",[13],45.1%
same,"viability, T/C",[14],48.2%
same,"viability, T/C",[15],42.7%
same,"viability, T/C",[16],46%
same,"viability, T/C",[17],48.1%
same,"viability, T/C",[18],0.4%
same,"viability, T/C",[19],36%
same,"viability, T/C",[20],39.8%
same,"viability, T/C",[21],34.5%
same,"viability, T/C",[22],35.9%
same,"viability, T/C",[23],36.7%
same,"viability, T/C",[24],1.8%
same,"viability, T/C",[25],37.3%
same,"viability, T/C",[26],35.2%
same,"viability, T/C",[27],32.3%
same,"viability, T/C",[28],36.7%
same,"viability, T/C",[29],34.1%
same,"viability, T/C",[30],0.54%
same,"viability, T/C",[31],37.3%
same,"viability, T/C",[32],35.4%
same,"viability, T/C",[33],37.9%
same,"viability, T/C",[34],38%
same,"viability, T/C",[35],27.1%
same,"viability, T/C",[36],0.4%
C=CC(=O)N1CCN(c2nc(=O)n(-c3c(C)ccnc3C(C)C)c3nc(-c4c(O)cccc4F)c(F)cc23)C(C)C1 (stereo not given) + CNC(=O)c1ccc(Nc2nc(OC3CCCC3)c3c(-c4ccc5nc(C)oc5c4)c[nH]c3n2)c(OC)c1,IC50,second compound 0.0316 µM,> 10 µM
same,IC50,second compound 0.1 µM,> 10 µM
same,IC50,second compound 0.316 µM,2.16 µM
same,IC50,second compound 1 µM,< 0.0316 µM
same,IC50,second compound 3.16 µM,< 0.0316 µM
same,IC50,second compound 10 µM,< 0.0316 µM
same,"viability, T/C",[1],91.3%
same,"viability, T/C",[2],89.6%
same,"viability, T/C",[3],100%
same,"viability, T/C",[4],86.2%
same,"viability, T/C",[5],114%
same,"viability, T/C",[6],110%
same,"viability, T/C",[7],77.3%
same,"viability, T/C",[8],79.4%
same,"viability, T/C",[9],77.7%
same,"viability, T/C",[10],77.8%
same,"viability, T/C",[11],72%
same,"viability, T/C",[12],58.2%
same,"viability, T/C",[13],55.5%
same,"viability, T/C",[14],51.2%
same,"viability, T/C",[15],48%
same,"viability, T/C",[16],57%
same,"viability, T/C",[17],47.4%
same,"viability, T/C",[18],38.5%
same,"viability, T/C",[19],39.4%
same,"viability, T/C",[20],39.4%
same,"viability, T/C",[21],39.3%
same,"viability, T/C",[22],34.7%
same,"viability, T/C",[23],38.3%
same,"viability, T/C",[24],28%
same,"viability, T/C",[25],38.4%
same,"viability, T/C",[26],38.2%
same,"viability, T/C",[27],34.9%
same,"viability, T/C",[28],34.3%
same,"viability, T/C",[29],34.9%
same,"viability, T/C",[30],23.8%
same,"viability, T/C",[31],35.4%
same,"viability, T/C",[32],33.5%
same,"viability, T/C",[33],36.3%
same,"viability, T/C",[34],37.8%
same,"viability, T/C",[35],37.1%
same,"viability, T/C",[36],24.4%
CCCS(=O)(=O)Nc1ccc(F)c(C(=O)c2c[nH]c3ncc(-c4ccc(Cl)cc4)cc23)c1F + CNC(=O)c1ccc(Nc2nc(OC3CCCC3)c3c(-c4ccc5nc(C)oc5c4)c[nH]c3n2)c(OC)c1,IC50,second compound 0.0316 µM,> 10 µM
same,IC50,second compound 0.1 µM,6.98 µM
same,IC50,second compound 0.316 µM,3.62 µM
same,IC50,second compound 1 µM,< 0.0316 µM
same,IC50,second compound 3.16 µM,< 0.0316 µM
same,IC50,second compound 10 µM,< 0.0316 µM
same,"viability, T/C",[1],105%
same,"viability, T/C",[2],101%
same,"viability, T/C",[3],98.5%
same,"viability, T/C",[4],110%
same,"viability, T/C",[5],103%
same,"viability, T/C",[6],78.8%
same,"viability, T/C",[7],77%
same,"viability, T/C",[8],77.5%
same,"viability, T/C",[9],73.7%
same,"viability, T/C",[10],92.5%
same,"viability, T/C",[11],79.2%
same,"viability, T/C",[12],36.7%
same,"viability, T/C",[13],50.8%
same,"viability, T/C",[14],53%
same,"viability, T/C",[15],58.7%
same,"viability, T/C",[16],63.6%
same,"viability, T/C",[17],51.7%
same,"viability, T/C",[18],25.9%
same,"viability, T/C",[19],38.9%
same,"viability, T/C",[20],38.2%
same,"viability, T/C",[21],39.6%
same,"viability, T/C",[22],44.6%
same,"viability, T/C",[23],36.4%
same,"viability, T/C",[24],27.3%
same,"viability, T/C",[25],33.2%
same,"viability, T/C",[26],37.9%
same,"viability, T/C",[27],37.9%
same,"viability, T/C",[28],37.1%
same,"viability, T/C",[29],33.3%
same,"viability, T/C",[30],21.6%
same,"viability, T/C",[31],37.4%
same,"viability, T/C",[32],39.2%
same,"viability, T/C",[33],36.6%
same,"viability, T/C",[34],34.8%
same,"viability, T/C",[35],31.6%
same,"viability, T/C",[36],24.5%
COC1C=CCC(C)C(C)S(=O)(=O)NC(=O)c2ccc3c(c2)N(CC2CCC21)CC1(CCCc2cc(Cl)ccc21)CO3 (stereo not given) + CNC(=O)c1ccc(Nc2nc(OC3CCCC3)c3c(-c4ccc5nc(C)oc5c4)c[nH]c3n2)c(OC)c1,IC50,second compound 0.0316 µM,3.55 µM
same,IC50,second compound 0.1 µM,0.0901 µM
same,IC50,second compound 0.316 µM,< 0.0316 µM
same,IC50,second compound 1 µM,< 0.0316 µM
same,IC50,second compound 3.16 µM,< 0.0316 µM
same,IC50,second compound 10 µM,< 0.0316 µM
same,"viability, T/C",[1],101%
same,"viability, T/C",[2],101%
same,"viability, T/C",[3],103%
same,"viability, T/C",[4],83%
same,"viability, T/C",[5],55.9%
same,"viability, T/C",[6],4.26%
same,"viability, T/C",[7],64%
same,"viability, T/C",[8],50.2%
same,"viability, T/C",[9],29.8%
same,"viability, T/C",[10],19.8%
same,"viability, T/C",[11],9.64%
same,"viability, T/C",[12],3.08%
same,"viability, T/C",[13],39.9%
same,"viability, T/C",[14],32%
same,"viability, T/C",[15],19.9%
same,"viability, T/C",[16],12.5%
same,"viability, T/C",[17],6.42%
same,"viability, T/C",[18],2.78%
same,"viability, T/C",[19],30.1%
same,"viability, T/C",[20],23.2%
same,"viability, T/C",[21],14.7%
same,"viability, T/C",[22],10.7%
same,"viability, T/C",[23],5.35%
same,"viability, T/C",[24],4.55%
same,"viability, T/C",[25],31.5%
same,"viability, T/C",[26],27%
same,"viability, T/C",[27],17.6%
same,"viability, T/C",[28],10.1%
same,"viability, T/C",[29],6.79%
same,"viability, T/C",[30],2.91%
same,"viability, T/C",[31],36.1%
same,"viability, T/C",[32],25.4%
same,"viability, T/C",[33],20.5%
same,"viability, T/C",[34],11.9%
same,"viability, T/C",[35],5.93%
same,"viability, T/C",[36],2.8%
